Patent publication US20120295802A1, “METHODS AND COMPOSITIONS FOR CANCER TREATMENT RELATING TO BRCA1 BRCT DOMAIN RECOGNITION OF PHOSPHORYLATED BACH1” (priority 2004, published 2012)
“Also recorded” adds a separate entry of the source.

Experiments:
[1] = test system: optimal tandem BRCT domain-interacting phosphopeptide, YDIpSQVFPF, or its non-phosphorylated counterpart; assay: Peptide binding: in vitro translated [35S] BRCA1 BRCT constructs on bead-immobilized phosphorylated or non-phosphorylated peptide; settings: in vitro transcribed and translated protein; for binding to phosphorylated peptide: bead-immobilized biotinylated phosphopeptide, SDS-PAGE and autoradiography; for binding to non-phosphorylated peptide: bead-immobilized biotinylated non-phosphorylated peptide
Procedure: An optimal phosphopeptide for binding the BRCA1 BRCTs was determined by oriented peptide library screening as described previously. This peptide was synthesized in both its phosphorylated and non-phosphorylated form with a biotin group at the N-terminus using N-α-FMOC-protected amino acids and standard BOP/HOBt coupling chemistry. These peptides were conjugated to streptavidin coated beads (Sigma-Aldrich). The wild-type and mutant BRCA1 BRCT domain-containing constructs (residues 1313-1863) were transcribed and translated in vitro in the presence of [^35S]-methionine using the TNT kit (Promega). The bead-immobilized peptides (10 μL of beads) were added to 10 μL of the in vitro translated [^35S]-labeled protein pool in 150 μL binding buffer (50 mM Tris-HCl (pH7.6), 150 mM NaCl, 0.5% NP-40, 1 mM EDTA, 2 mM DTT, 8 μg/mL pepstatin, 8 μg mL^−1 aprotinin, 8 μg mL^−1 leupeptin, 800 μM Na3VO4, 25 mM NaF). After incubation at 4° C. for 3 hours, the beads were washed three times with 200 μL of binding buffer prior to analysis by SDS-PAGE (12.5% (w/v)) and autoradiography.

[2] = test system: cholinesterases; settings: by cholinesterases; cited from earlier work
[3] = target: T1, endogenous BACH1 (Homo sapiens, UniProt Q9BX63); assay: Co-immunoprecipitation of BRCA1 BRCTs and BACH1 in transfected U2OS cells; assay type: cell-based; settings: U2OS cells transfected with myc-tagged BRCA1 construct; anti-myc immunoprecipitation, anti-BACH1 blot
T1 construct: endogenous in cells; host or cells: U2OS cells (BACH1 endogenous; the BRCA1 fragment transfected from pcDNA3 with FuGene6)
T1 sequence (Q9BX63 1-1249): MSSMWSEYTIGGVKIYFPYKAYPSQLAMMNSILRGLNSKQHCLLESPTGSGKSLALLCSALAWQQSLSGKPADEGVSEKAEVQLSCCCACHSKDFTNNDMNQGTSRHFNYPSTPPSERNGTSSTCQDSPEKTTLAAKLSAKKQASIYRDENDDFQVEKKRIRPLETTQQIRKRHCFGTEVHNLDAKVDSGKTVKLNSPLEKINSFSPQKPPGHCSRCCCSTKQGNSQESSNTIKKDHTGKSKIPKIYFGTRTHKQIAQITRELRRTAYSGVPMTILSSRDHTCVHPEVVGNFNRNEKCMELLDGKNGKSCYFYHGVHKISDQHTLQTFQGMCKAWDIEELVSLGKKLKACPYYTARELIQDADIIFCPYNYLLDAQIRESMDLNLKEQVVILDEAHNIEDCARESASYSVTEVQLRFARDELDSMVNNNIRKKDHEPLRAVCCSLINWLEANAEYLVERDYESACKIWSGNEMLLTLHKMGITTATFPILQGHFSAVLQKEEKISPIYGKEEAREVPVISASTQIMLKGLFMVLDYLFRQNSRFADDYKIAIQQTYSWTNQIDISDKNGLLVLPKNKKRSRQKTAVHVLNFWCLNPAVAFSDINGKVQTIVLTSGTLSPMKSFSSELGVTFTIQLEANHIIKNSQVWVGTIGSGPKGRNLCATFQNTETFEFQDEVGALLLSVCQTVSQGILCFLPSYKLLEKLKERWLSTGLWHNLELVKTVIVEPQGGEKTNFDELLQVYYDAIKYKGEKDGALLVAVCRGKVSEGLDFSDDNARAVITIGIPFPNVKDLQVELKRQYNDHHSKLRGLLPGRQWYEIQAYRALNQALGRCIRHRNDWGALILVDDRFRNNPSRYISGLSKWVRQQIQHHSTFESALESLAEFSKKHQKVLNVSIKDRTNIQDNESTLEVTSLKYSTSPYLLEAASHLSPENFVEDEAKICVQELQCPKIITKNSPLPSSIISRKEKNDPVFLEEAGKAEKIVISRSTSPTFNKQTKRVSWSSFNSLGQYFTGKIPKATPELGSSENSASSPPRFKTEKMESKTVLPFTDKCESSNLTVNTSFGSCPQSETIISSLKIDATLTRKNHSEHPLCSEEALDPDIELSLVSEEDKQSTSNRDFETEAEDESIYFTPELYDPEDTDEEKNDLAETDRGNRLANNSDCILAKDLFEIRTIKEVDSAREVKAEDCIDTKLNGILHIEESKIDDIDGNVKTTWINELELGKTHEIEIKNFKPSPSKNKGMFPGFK
Procedure: U2OS cells were grown to 50% confluency in 100 cm^2 dishes and transfected with the myc-tagged wild-type or mutant BRCA1 BRCT constructs (residues 1313-1863) (SEQ ID NO.: 6) using FuGene6 transfection reagent (Roche) according to manufacturer's protocol. Cells were collected 30 hrs following transfection, lysed in lysis buffer (50 mM Tris-HCl (pH7.6), 150 mM NaCl, 1.0% NP-40, 5 mM EDTA, 2 mM DTT, 8 μg/mL AEBSF, 8 μg mL^−1 aprotinin, 8 μg mL^−1 leupeptin, 2 mM Na3VO4, 10 mM NaF and the phosphatase inhibitors microcystin and okadaic acid). Lysates containing equal amounts of protein (3 mg) was incubated with 3 μL of a mouse anti-myc antibody (Cell Signaling) for 2 hr at 4° C. and then 10 μL of protein G-sepharose beads (Sigma-Aldrich) were added and samples incubated for an additional 2 hr at 4° C. Beads were washed four times with lysis buffer, bound proteins eluted in SDS-PAGE sample buffer, analysed on 6% polyacrylamide gels, transferred to PVDF membrane, and detected by blotting with rabbit anti-BACH1 antibody. A portion of the lysates were also run and blotted with the anti-BACH1 antibody and the anti-myc antibody to further ensure equal protein loading.

[4] = target: T2, BACH1 phosphopeptide spot array (Homo sapiens); assay: Peptide filter array (spot blot) with GST-BRCA1 BRCTs; assay type: binding; settings: 0.25 μM GST-BRCA1 BRCTs M1775R, 10 times the protein of wild type
T2 construct: made in house; host or cells: bacteria (pGEX clone, IPTG induction)
Procedure: An ABIMED peptide arrayer with a computer controlled Gilson diluter and liquid handling robot was used to synthesize peptides onto an amino-PEG cellulose membrane using N-α-FMOC-protected amino acids and DIC/HOBT coupling chemistry. The membranes were blocked in 5% (w/v) milk in Tris-buffered saline containing 0.1% (v/v) Tween-20 (TBS-T) for 1 hr at room temperature, incubated with 0.025 μM GST-BRCA1 BRCTs or 0.25 μM GST-BRCA1 BRCTs M1775R (residues 1633-1863) in 5% (w/v) milk, 50 mM Tris-HCl (pH 7.6), 150 mM NaCl, 2 mM EDTA, 2 mM DTT for 1 hr at room temperature and washed four times with TBS-T. The membranes were then incubated with anti-GST conjugated HRP (Amersham) in 5% (w/v) milk/TBS-T for 1 hr at room temperature, washed five times with TBS-T, and binding analysed by ECL (Perkin-Elmer).

[5] = test system: U2OS cells; assay: Immunofluorescence: localization and nuclear foci formation of myc-tagged BRCA1 tandem BRCT domains; assay type: cell-based; settings: for co-localization with anti-pSer/pThr-Gln epitope antibody staining / nuclear foci formation after DNA damage: U2OS cells, 10 Gy γ-irradiation; for co-localization with anti-pSer/pThr-Gln epitope antibody staining: 2 hrs; for nuclear foci formation after DNA damage: 2 hrs later permeabilized, fixed and stained
Procedure: U2OS cells were seeded onto 18 mm^2 coverslips and transfected with the BRCA1 BRCT construct (residues 1313-1863) and various mutants using FuGene6 transfection reagent (Roche) according to manufacturer's protocol. Thirty hours following transfection, the cells were either treated with 10 Gy of ionizing radiation or mock irradiated and allowed to recover for 120 minutes. Cells were fixed in 3% (v/v) paraformaldehyde/2% (w/v) sucrose for 15 min at RT and permeabilized with a 0.5% (v/v) Triton X-100 solution containing 20 mM Tris-HCl (pH 7.8), 75 mM NaCl, 300 mM sucrose, and 3 mM MgCl2 for 15 min at RT. When necessary, proteins were extracted after IR treatment as described previously. In brief, cells were incubated with extraction buffer (10 mM PIPES pH6.8, 100 mM NaCl, 300 mM sucrose, 3 mM MgCl2, 1 mM EGTA, 0.5% (v/v) Triton X-100) for 5 minutes on ice followed by incubation with extraction stripping buffer (10 mM Tris-HCl pH 7.4, 10 mM NaCl, 3 mM MgCl2, 0.5% (v/v) Triton X-100) for 5 minutes on ice followed by successive washes in ice cold PBS. Slides were fixed as above, stained with primary antibodies at 37° C. for 20 min, then stained with a anti-mouse or anti-rabbit secondary antibody for 20 min (Molecular Probes) at 37° C. Primary antibodies used were mouse anti-myc (Cell Signaling) and rabbit anti-(pSer/pThr)Gln (Cell Signaling). Images were collected on a Axioplan2 microscope (Carl Zeiss) and processed using OpenLab software (Improvision).

| Compound | binding to phosphorylated peptide [1] | co-localization with anti-pSer/pThr-Gln epitope antibody staining [5] | nuclear foci formation after DNA damage [5] | other results |
| --- | --- | --- | --- | --- |
| 5382InsC: BRCA1 frameshift mutation that results in a stop codon at position 1829 (SEQ ID NO.: 22) | complete loss of phosphopeptide binding | – | – | – |
| C[C@H]1C[C@@H]2[C@H]([C@@H](O)C[C@@]3(C)[C@H]2CC[C@]3(O)C(=O)COC(=O)CCC(=O)[O-])[C@@]2(C)C=CC(=O)C=C12.[Na+] [Methylprednisolone sodium succinate ester] | – | – | – | hydrolysis in vivo to free methylprednisolone [2]: rapidly and extensively hydrolysed |
| G1738E: cancer-linked BRCA1 tandem BRCT domain mutant (SEQ ID NO.: 17) | complete loss of phosphopeptide binding | – | – | – |
| M1775R: cancer-associated BRCA1 tandem BRCT domain mutant (SEQ ID NO.: 10) | complete loss of phosphopeptide binding | less co-localization with pSer/pThr-Gln staining foci than the wild-type protein | also formed punctate nuclear foci, although these were slightly reduced in number; also recorded: can still form nuclear foci after DNA damage | in vivo interaction with full-length endogenous BACH1 [3]: completely loses the ability to interact with wild-type BACH1; binding to BACH1 phosphopeptide in which the +3 Phe is mutated to Asp or Glu [4]: bind weakly; also recorded: binds weakly to phosphopeptides with altered motif specificity |
| P1749R: cancer-linked BRCA1 tandem BRCT domain mutant (SEQ ID NO.: 18) | complete loss of phosphopeptide binding | – | – | – |
| R1699Q: BRCA1 tandem BRCT domain mutant detected in breast cancer patients (SEQ ID NO.: 14) | retained a small degree of binding | – | – | binding to non-phosphorylated peptide [1]: weak phospho-independent binding; also recorded: bound to both phosphorylated and non-phosphorylated peptides |
| S1655A/K1702M: phosphopeptide-binding double mutant of BRCA1 tandem BRCT domains (SEQ ID NO.: 20) | completely abolished the interaction | completely failed to co-localize | only faint staining with a very fine granular pattern | nuclear foci, in words ([5]; un-irradiated U2OS cells, Triton X-100 extracted prior to fixation): no foci were observed |
| Wild-type BRCA1 tandem BRCT domains: myc-tagged human BRCA1 BRCT construct, residues 1313-1863, with SV40 nuclear localization sequence; GST fusion of residues 1633-1863 for the filter array | clearly bind | largely co-localized | demonstrated sharp punctate nuclear foci | binding to non-phosphorylated peptide [1]: not non-phosphorylated peptides; in vivo interaction with full-length endogenous BACH1 [3]: easily detected |
| Y1853X: BRCA1 BRCT mutant which truncates the last 11 residues (SEQ ID NO.: 21) | complete loss of phosphopeptide binding | – | – | – |
